The source of these data is patent US20240159744A1, “COLON CANCER DIAGNOSIS OR DETECTION COMPOSITION FOR PREDICTING RESPONSE TO DRUG, AND COMPOSITION FOR PREVENTING OR TREATING COLON CANCER” (priority 2020, published 2024).

Data set [1] relates to HCT-15 tumor-bearing mice. The data set can be described thus: Tumor-targeting ability and biodistribution of DOX, C-prodrug, EGF-prodrug. Particulars: intravenous, 24 hours. The data set is classed as in vivo. An excerpt: In addition, the tumor-targeting ability of DOX, the C-prodrug and the EGF-prodrug was compared.
Data set [2] concerns HCT-15, HT29, Lovo and HCT-8 cells. Kind of data set: In-vitro toxicity test (CCK-8), statements over all four cell lines. The data set is classed as cell-based, human. Particulars: 48 hours. As for the experimental part: First, HCT-15 cells were plated on a 96-well plate at a density of 5×10^3 cell/well. […] 48 hours later, the medium was removed and the cells were treated with a cell counting kit (CCK-8, Dojindo, Japan) at 37° C. for 1 hour. Absorbance was measured at 450 nm using a VERSAmax™ microplate reader (Molecular Devices Corp., CA, USA). The cell viability of each group (n=5) was represented as a percentage of normal untreated cells (control group). […] After removing the medium, cell viability was evaluated by CCK-8 assay.

Data set [3] deals with HCT-8-bearing mice. The data set can be described thus: Antitumor effect of EGF-prodrug in vivo. Particulars: 1 mg/kg of DOX, 6 times every 3 days, 21 days. Here is the method: 2×10^6 HCT-15 cells or HCT-8 cells were subcutaneously inoculated to Balb/c-nude mice. […] The injection was carried out into the tail vein every 3 days for a total of 6 times. Antitumor effect was evaluated by sacrificing the mice to which the HCT-15 or HCT-8 cells were administered and measuring the volume of tumor tissue. The volume of the tumor tissue was calculated every day or every other day by 0.53×length×width^2. Tumor growth was monitored for 21 days. After sacrificing the mice, the HCT-15 or HCT-8 tumor tissues were collected. The dissected tumors were imaged and fixed by treating with 4% paraformaldehyde. […] The sections were used for histological or pathological investigation. They were stained with H&E for visualization and subjected to TUNEL assay using a […] TUNEL system (Promega, WI, USA) for investigation of the apoptosis of cancer cells. The tumor tissues stained with H&E and TUNEL were observed using a BX51 optical microscope (Olympus, Tokyo, Japan) and a TCS SP8 confocal laser microscope.

Data set [4] relates to HCT-15 tumor-bearing mice. Kind of data set: In-vivo and ex-vivo fluorescence imaging of EGF-Cy5.5, C-probe, EGF-probe. Particulars: cryosections, confocal. Here is the method:
The biodistribution of the EGF-probe intravenously administered to mice having HCT-15, HT29, Lovo or HCT-8 tumors was evaluated. First of all, 6-week-old Balb/c-nude mice (Nara-Biotec, Gyeonggi-do, Korea) were prepared and each cell was subcutaneously inoculated into the nude mice at the right flank at a concentration of 2×10^6 cells/mouse to generate tumors. […] At 24 hours after the administration of the EGF-probe, the mouse was imaged using an IVIS fluorescence imaging system. […] IVIS fluorescence imaging was conducted at 24 hours after the administration. Major organs and tumors were obtained and imaged with an IVIS imaging system. The fluorescence intensity of the organs and tumors was analyzed using the Living Image 2.50 software. […] The tumor tissue sections were counter-stained with DAPI and visualized with a confocal microscope.

With `COc1cccc2c1C(=O)c1c(O)c3c(c(O)c1C2=O)C[C@@](O)(C(=O)CO)C[C@@H]3O[C@H]1C[C@H](N)[C@H](O)[C@H](C)O1.Cl` [DOX, doxorubicin hydrochloride], the “ex-vivo distribution in organs and tumor” value in data set [1] was “significant amounts were accumulated also in the lung, liver and kidney”. Also, in data set [2], the cytotoxicity versus concentration result is recorded as “increased with the concentration”. Also, the tumor size result in data set [3] was “not controlled significantly”.

(Ac)CGFLG-DOX [C-prodrug]: in data set [3], the tumor size entry was “not controlled significantly”.

For the compound Cy5.5-GFLGGK(BHQ-3)GG-COOH [C-probe], in data set [4], the “fluorescence of tumor tissue sections” value is “much weaker fluorescence signals”.
